Experimental data from PubChem BioAssay (NCI).
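The compound was tested at five concentrations on cells cultured in 96-well plates, with a 48-hour exposure period. GI50: concentration for 50% inhibition of growth. Definition used: TGI = concentration required for complete inhibition of growth.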

Assays:
Test in all cases: NCI tumour cell line growth inhibition, 48 h; in the data active = GI50 below about 0.43 µM; inactive = the rest
U251 CNS = test system: U251 CNS
HS 578T breast = test system: HS 578T breast
SF-539 CNS = test system: SF-539 CNS
ACHN renal = test system: ACHN renal
NCI-H522 lung = test system: NCI-H522 lung
UACC-257 melanoma = test system: UACC-257 melanoma
SK-MEL-2 melanoma = test system: SK-MEL-2 melanoma
HCC-2998 colon = test system: HCC-2998 colon
IGROV1 ovarian = test system: IGROV1 ovarian
LOX IMVI melanoma = test system: LOX IMVI melanoma
CAKI-1 renal = test system: CAKI-1 renal
SK-MEL-28 melanoma = test system: SK-MEL-28 melanoma
HOP-92 NSCLC = test system: HOP-92 NSCLC
HOP-62 NSCLC = test system: HOP-62 NSCLC
MOLT-4 leukemia = test system: MOLT-4 leukemia
786-0 renal = test system: 786-0 renal
BT-549 breast = test system: BT-549 breast
SN12C renal = test system: SN12C renal
OVCAR-4 ovarian = test system: OVCAR-4 ovarian
MDA-MB-435 = test system: MDA-MB-435
NCI-H226 lung = test system: NCI-H226 lung
SF-295 CNS = test system: SF-295 CNS
HT29 colon = test system: HT29 colon
HCT-15 colon = test system: HCT-15 colon
COLO 205 colon = test system: COLO 205 colon
HCT-116 colon = test system: HCT-116 colon
SNB-75 CNS = test system: SNB-75 CNS
RPMI-8226 leukemia = test system: RPMI-8226 leukemia
NCI-H460 lung = test system: NCI-H460 lung
OVCAR-3 ovarian = test system: OVCAR-3 ovarian
MCF7 breast = test system: MCF7 breast
M14 melanoma = test system: M14 melanoma
PC-3 prostate = test system: PC-3 prostate
A498 renal = test system: A498 renal
MALME-3M melanoma = test system: MALME-3M melanoma
RXF 393 renal = test system: RXF 393 renal
SNB-19 CNS = test system: SNB-19 CNS
CCRF-CEM leukemia = test system: CCRF-CEM leukemia
DU-145 prostate = test system: DU-145 prostate
SW-620 colon = test system: SW-620 colon
K-562 leukemia = test system: K-562 leukemia
HL-60(TB) leukemia = test system: HL-60(TB) leukemia
UACC-62 melanoma = test system: UACC-62 melanoma
OVCAR-8 ovarian = test system: OVCAR-8 ovarian
TK-10 renal = test system: TK-10 renal
NCI/ADR-RES ovarian = test system: NCI/ADR-RES ovarian
MDA-MB-231 breast = test system: MDA-MB-231 breast
KM12 colon = test system: KM12 colon
SF-268 CNS = test system: SF-268 CNS
OVCAR-5 ovarian = test system: OVCAR-5 ovarian
EKVX NSCLC = test system: EKVX NSCLC
SR leukemia = test system: SR leukemia
SK-MEL-5 melanoma = test system: SK-MEL-5 melanoma
A549 NSCLC = test system: A549 NSCLC

Nc1ncc(-c2ccc3ncnc(N4CCc5cc(F)c(Cl)cc54)c3c2)cn1
7340 nM: TGI (BT-549 breast)
8530 nM: TGI (SK-MEL-2 melanoma)
36600 nM: TGI (MOLT-4 leukemia)
3710 nM: TGI (HOP-92 NSCLC)
> 100000 nM: TGI (U251 CNS) | TGI (SF-539 CNS) | TGI (ACHN renal) | TGI (NCI-H522 lung) | TGI (UACC-257 melanoma) | TGI (HCC-2998 colon) | TGI (LOX IMVI melanoma) | TGI (SK-MEL-28 melanoma) | TGI (HOP-62 NSCLC) | TGI (786-0 renal) | TGI (SN12C renal) | TGI (OVCAR-4 ovarian) | TGI (MDA-MB-435) | TGI (NCI-H226 lung) | TGI (SF-295 CNS) | TGI (HT29 colon) | TGI (HCT-15 colon) | TGI (HCT-116 colon) | TGI (NCI-H460 lung) | TGI (OVCAR-3 ovarian) | TGI (MCF7 breast) | TGI (M14 melanoma) | TGI (PC-3 prostate) | TGI (MALME-3M melanoma) | TGI (SNB-19 CNS) | TGI (CCRF-CEM leukemia) | TGI (DU-145 prostate) | TGI (SW-620 colon) | TGI (K-562 leukemia) | TGI (HL-60(TB) leukemia) | TGI (OVCAR-8 ovarian) | TGI (NCI/ADR-RES ovarian) | TGI (KM12 colon) | TGI (SF-268 CNS) | TGI (OVCAR-5 ovarian) | TGI (SR leukemia) | TGI (A549 NSCLC)
6870 nM: TGI (UACC-62 melanoma)
3060 nM: TGI (HS 578T breast)
11000 nM: TGI (SK-MEL-5 melanoma)
6760 nM: TGI (CAKI-1 renal)
1270 nM: TGI (IGROV1 ovarian)
1850 nM: TGI (SNB-75 CNS)
14300 nM: TGI (MDA-MB-231 breast)
16000 nM: TGI (COLO 205 colon)
7410 nM: TGI (TK-10 renal)
5440 nM: TGI (RPMI-8226 leukemia)
active: GI50 (HS 578T breast) 406 nM | GI50 (IGROV1 ovarian) 244 nM | GI50 (CAKI-1 renal) 418 nM | GI50 (HOP-92 NSCLC) 323 nM | GI50 (SNB-75 CNS) 162 nM | GI50 (MCF7 breast) 278 nM | GI50 (A498 renal) 256 nM | GI50 (RXF 393 renal) 350 nM
2260 nM: TGI (RXF 393 renal)
inactive: GI50 (U251 CNS) 3260 nM | GI50 (SF-539 CNS) 1910 nM | GI50 (ACHN renal) 557 nM | GI50 (NCI-H522 lung) 2800 nM | GI50 (UACC-257 melanoma) 3730 nM | GI50 (SK-MEL-2 melanoma) 2430 nM | GI50 (HCC-2998 colon) 3120 nM | GI50 (LOX IMVI melanoma) 1940 nM | GI50 (SK-MEL-28 melanoma) 2640 nM | GI50 (HOP-62 NSCLC) 1450 nM | GI50 (MOLT-4 leukemia) 1830 nM | GI50 (786-0 renal) 741 nM | GI50 (BT-549 breast) 1060 nM | GI50 (SN12C renal) 1060 nM | GI50 (OVCAR-4 ovarian) 2860 nM | GI50 (MDA-MB-435) 2610 nM | GI50 (NCI-H226 lung) 1340 nM | GI50 (SF-295 CNS) 1820 nM | GI50 (HT29 colon) 1770 nM | GI50 (HCT-15 colon) 1940 nM | GI50 (COLO 205 colon) 1910 nM | GI50 (HCT-116 colon) 1990 nM | GI50 (RPMI-8226 leukemia) 866 nM | GI50 (NCI-H460 lung) 1040 nM | GI50 (OVCAR-3 ovarian) 1350 nM | GI50 (M14 melanoma) 2860 nM | GI50 (PC-3 prostate) 1030 nM | GI50 (MALME-3M melanoma) 1730 nM | GI50 (SNB-19 CNS) 2420 nM | GI50 (CCRF-CEM leukemia) 1600 nM | GI50 (DU-145 prostate) 722 nM | GI50 (SW-620 colon) 2510 nM | GI50 (K-562 leukemia) 3160 nM | GI50 (HL-60(TB) leukemia) 1130 nM | GI50 (UACC-62 melanoma) 731 nM | GI50 (OVCAR-8 ovarian) 2300 nM | GI50 (TK-10 renal) 696 nM | GI50 (NCI/ADR-RES ovarian) 2700 nM | GI50 (MDA-MB-231 breast) 1020 nM | GI50 (KM12 colon) 3360 nM | GI50 (SF-268 CNS) 1020 nM | GI50 (OVCAR-5 ovarian) 1160 nM | GI50 (EKVX NSCLC) 499 nM | GI50 (SR leukemia) 2250 nM | GI50 (SK-MEL-5 melanoma) 2290 nM | GI50 (A549 NSCLC) 1320 nM
10100 nM: TGI (EKVX NSCLC)
1460 nM: TGI (A498 renal)
